One series relates to replicon cells (1b-Con1). Put plainly: microbe, parasite or virus in culture. As to conditions: Hepatitis C virus, 72 h; 1b-Con1 replicon cells, three days post-dosing, Taqman RT-PCR with GAPDH RNA as control. In kind it is cell-based, HCV. (In general: Replicon systems follow genome replication, usually without infectious particles.)
The next series has as its system replicon cells. As to conditions: CC50, MTS assay three days post dosing in replicon cells.
The target of series [1] is T1, HCV NS5B RNA-dependent RNA polymerase (1b-BKΔ55) (Hepatitis C virus genotype 1b, UniProt P26663).
T1 construct: 5 nM NS5B (1b-BKΔ55) enzyme
T1 sequence (P26663 2420-2955, stated change not applied): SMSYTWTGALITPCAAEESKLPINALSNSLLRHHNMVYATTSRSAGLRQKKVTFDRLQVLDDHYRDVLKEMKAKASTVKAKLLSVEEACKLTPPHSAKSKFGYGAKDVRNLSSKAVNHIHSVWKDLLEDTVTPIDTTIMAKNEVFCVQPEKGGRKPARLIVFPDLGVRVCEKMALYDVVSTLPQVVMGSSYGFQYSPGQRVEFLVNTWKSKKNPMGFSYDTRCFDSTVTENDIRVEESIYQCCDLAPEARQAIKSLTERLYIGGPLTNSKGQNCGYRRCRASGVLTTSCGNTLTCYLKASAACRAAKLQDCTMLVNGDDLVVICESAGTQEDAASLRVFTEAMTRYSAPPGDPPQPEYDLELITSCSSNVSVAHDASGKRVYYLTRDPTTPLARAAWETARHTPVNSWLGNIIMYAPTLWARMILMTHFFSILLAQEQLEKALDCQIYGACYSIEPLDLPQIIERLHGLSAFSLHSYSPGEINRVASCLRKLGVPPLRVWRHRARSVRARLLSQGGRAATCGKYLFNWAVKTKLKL
The series can be described thus: Inhibition of HCV NS5B polymerase by nucleoside triphosphate analogs (radiolabeled nucleotide incorporation assay). In kind it is biochemical. As to the method:
To measure inhibition of the enzymatic activity of the HCV NS5B RNA-dependent RNA polymerase by the nucleoside triphosphate compounds of the present invention, a radiolabeled nucleotide incorporation assay was used. This assay is a modified version of the assay described in International Publication No. WO2002/057287. Briefly, 50 μL reactions containing 20 mM HEPES (pH 7.3); 7.5 mM DTT; 20 units/ml RNasIN; 1 μM each of ATP, GTP, UTP and CTP; 20 μCi/mL [^33P]-CTP; 10 mM MgCl; 60 mM NaCl; 100 μg/ml BSA; […] heteropolymer RNA template; and 5 nM NS5B (1b-BKΔ55) enzyme are incubated at room temperature for 1 hour. The assay is then terminated by the addition of 500 mM EDTA (50 μl). The reaction mixture is transferred to a Millipore DE81 filter plate and the incorporation of labeled CTP is determined using Packard TopCount. Compound IC50 values can then be calculated from experiments with 10 serial 3-fold dilutions of the inhibitor in duplicate.
Data was obtained using this method for the NTP analogs of selected compounds below of the present invention, and is set forth below. […] Data is also presented for comparative compounds, labeled as Compound B and Compound C.

The values that follow come from US20140128339A1, “2'-METHYL SUBSTITUTED NUCLEOSIDE DERIVATIVES AND METHODS OF USE THEREOF FOR THE TREATMENT OF VIRAL DISEASES” (priority 2012, published 2014).

Each structure is given as a SMILES string.

As a reminder, the EC50 is the midpoint of the concentration-response curve. A low value points to higher potency in that assay. `CC(C)OC(=O)[C@H](C)NP(=O)(OC[C@H]1O[C@@H](n2ccc(NC(=O)C(C)C)nc2=O)[C@](C)(N=[N+]=[N-])[C@@H]1OC(=O)C(C)C)Oc1ccccc1` (some centres unmarked) [Compound 18] gave an EC50 in the series with replicon cells (1b-Con1) of 15 µM. Further, the Cytotoxicity with replicon cells was above 100 µM. On the same counts, the results for `CCCCC(=O)O[C@@H]1[C@@H](COP(=O)(N[C@@H](C)C(=O)OC(C)C)Oc2ccccc2)O[C@@H](n2ccc(=O)[nH]c2=O)[C@]1(C)C#N` (some centres unmarked) [Compound 28] are 0.7 µM and 76 µM. Taken in the same sequence, the figures for `CC(C)OC(=O)[C@H](C)NP(=O)(OC[C@H]1O[C@@H](n2ccc(=O)[nH]c2=O)[C@](C)(C#N)[C@@H]1OC(=O)C1CC1)Oc1ccccc1` (some centres unmarked) [Compound 24] were 6.3 µM and above 100 µM. Turning to `CCCCCCCCCCCCCCCCCC(=O)Nc1ccn(C2O[C@H](CO[P@](=O)(N[C@@H](C)C(=O)OC(C)C)Oc3ccccc3)[C@@H](O)[C@@]2(C)C#N)c(=O)n1` (some centres unmarked) [Compound 11], the midpoint of the response in the series with replicon cells (1b-Con1), the EC50, lay at 1.8 µM. This compound showed a Cytotoxicity in the series with replicon cells of 25 µM. A word on the Ki: it is a measure of affinity in units of concentration, obtained from inhibition or displacement. High values mean a looser hold on the target, low ones a stronger hold on the target. `C#C[C@]1(C)[C@H](O)[C@@H](COP(=O)(O)OP(=O)(O)OP(=O)(O)O)O[C@H]1n1ccc(=O)[nH]c1=O` [Compound 36] registered a Ki in series [1] of 11 µM. Still for that read-out and setting: as for `C[C@@]1(N)[C@H](O)[C@@H](COP(=O)(O)OP(=O)(O)OP(=O)(O)O)O[C@H]1n1ccc(=O)[nH]c1=O` [Compound 35], the figure is 4.7 µM. In the series on replicon cells (1b-Con1), `CC(C)NC(=O)O[C@@H]1[C@@H](COP(=O)(N[C@@H](C)C(=O)OC(C)C)Oc2ccccc2)O[C@@H](n2ccc(=O)[nH]c2=O)[C@]1(C)C#N` (some centres unmarked) [Compound 27] yielded an EC50 above 100 µM. The Cytotoxicity with replicon cells is above 100 µM. On the same counts, the results for `CCCC(CCC)C(=O)O[C@@H]1[C@@H](COP(=O)(N[C@@H](C)C(=O)OC(C)C)Oc2ccccc2)O[C@@H](n2ccc(N)nc2=O)[C@]1(C)N=[N+]=[N-]` (some centres unmarked) [Compound 16] are 0.1 µM and 13 µM. Taken in the same sequence, the figures for `CC(C)OC(=O)O[C@@H]1[C@@H](COP(=O)(N[C@@H](C)C(=O)OC(C)C)Oc2ccccc2)O[C@@H](n2ccc(=O)[nH]c2=O)[C@]1(C)C#N` (some centres unmarked) [Compound 26] were 1 µM and above 100 µM. Taken in the same sequence, the figures for `CC(C)OC(=O)[C@H](C)NP(=O)(OC[C@H]1O[C@@H](n2ccc(=O)[nH]c2=O)[C@](C)(C#N)[C@@H]1OC(=O)C(C)C)Oc1ccccc1` (some centres unmarked) [Compound 23] were 0.7 µM and above 100 µM. In the series with replicon cells (1b-Con1), `CC(C)OC(=O)[C@H](C)NP(=O)(OC[C@H]1O[C@@H](n2ccc(NC(=O)C(C)C)nc2=O)[C@](C)(C#N)[C@@H]1OC(=O)C(C)C)Oc1ccccc1` (some centres unmarked) [Compound 12] gave a concentration for a half-maximal effect (EC50) of 10 µM. The Cytotoxicity in the series on replicon cells was 76 µM. As to `C[C@@]1(N)[C@H](O)[C@@H](COP(=O)(O)OP(=O)(O)OP(=O)(O)O)O[C@H]1n1ccc(N)nc1=O` [Compound 34], the Ki in series [1] is 0.05 µM. In the case of `CCCCCCCCCCCCCCCCCC(=O)O[C@@H]1[C@@H](COP(=O)(N[C@@H](C)C(=O)OC(C)C)Oc2ccccc2)O[C@@H](n2ccc(N)nc2=O)[C@]1(C)N=[N+]=[N-]` (some centres unmarked) [Compound 17], the EC50 with replicon cells (1b-Con1) amounted to 8.2 µM. The Cytotoxicity in the series on replicon cells amounted to 9.9 µM. Taken in the same sequence, the figures for `CC(C)OC(=O)[C@H](C)N[P@@](=O)(OC[C@H]1OC(n2ccc(N)nc2=O)[C@](C)(C#N)[C@@H]1OC(=O)C(C)C)Oc1ccccc1` (some centres unmarked) [Compound 7] were 0.425 µM and above 100 µM. Taken in the same sequence, the figures for `CC(C)OC(=O)[C@H](C)NP(=O)(OC[C@H]1O[C@@H](n2ccc(=O)[nH]c2=O)[C@](C)(C#N)[C@@H]1OC(=O)C1CCC1)Oc1ccccc1` (some centres unmarked) [Compound 25] were 0.7 µM and above 100 µM. Taken in the same sequence, the figures for `CC(C)OC(=O)[C@H](C)N[P@@](=O)(OC[C@H]1OC(n2ccc(NC(=O)C(C)C)nc2=O)[C@](C)(C#N)[C@@H]1O)Oc1ccccc1` (some centres unmarked) [Compound 10] were 9.5 µM and 10 µM. For `CC(C)OC(=O)[C@H](C)NP(=O)(OC[C@H]1O[C@@H](n2ccc(NC(=O)C(C)C)nc2=O)[C@](C)(N=[N+]=[N-])[C@@H]1O)Oc1ccccc1` (some centres unmarked) [Compound 19], the EC50 in the series with replicon cells (1b-Con1) is 8.5 µM. Besides, the Cytotoxicity in the series with replicon cells is above 100 µM. On the same counts, the results for `CCCCCCCCCCCCCCCCCC(=O)Nc1ccn(C2O[C@H](CO[P@](=O)(N[C@@H](C)C(=O)OC(C)C)Oc3ccccc3)[C@@H](OC(=O)CCCCCCCCCCCCCCCCC)[C@@]2(C)C#N)c(=O)n1` (some centres unmarked) [Compound 13] are above 100 µM and above 100 µM. On the same counts, the results for `CCCC(CCC)C(=O)O[C@@H]1[C@@H](COP(=O)(N[C@@H](C)C(=O)OC(C)C)Oc2ccccc2)O[C@@H](n2ccc(=O)[nH]c2=O)[C@]1(C)C#N` (some centres unmarked) [Compound 29] are 0.19 µM and 20 µM.

Consider `CCCCCCCCCCCCCCCCCC(=O)O[C@@H]1[C@@H](CO[P@](=O)(N[C@@H](C)C(=O)OC(C)C)Oc2ccccc2)OC(n2ccc(N)nc2=O)[C@]1(C)C#N` (some centres unmarked) [Compound 8], for which a half-maximal response in the series with replicon cells (1b-Con1) (EC50) required 5.09 µM. Further, the Cytotoxicity in the series with replicon cells stood at 6.54 µM. Taken in the same sequence, the figures for `CC(C)OC(=O)[C@H](C)NP(=O)(OC[C@H]1O[C@@H](n2ccc(N)nc2=O)[C@](C)(N=[N+]=[N-])[C@@H]1OC(=O)C(C)C)Oc1ccccc1` (some centres unmarked) [Compound 15] were 0.6 µM and above 100 µM. On the same counts, the results for `CCCCCCCCCCCCCCCCCC(=O)Nc1ccn([C@@H]2O[C@H](COP(=O)(N[C@@H](C)C(=O)OC(C)C)Oc3ccccc3)[C@@H](O)[C@@]2(C)N=[N+]=[N-])c(=O)n1` (some centres unmarked) [Compound 20] are 3.6 µM and above 100 µM.
